Experimental data as given in patent publication US20110306638A1, “BENZISOXAZOLE PIPERIDINYL DERIVATIVES, PHARMACEUTICAL COMPOSITIONS COMPRISING THE DERIVATIVES AND THEIR USE” (NHWA PHARMA. CORPORATION, priority 2008, published 2011).
Marks after values point to notes of the source that are not given here.

How the values were obtained:
[1] = tested on: Salmonella typhimurium histidine auxotroph mutants TA97, TA98, TA100 and TA102; assay: Bacterial reverse mutation test (Ames test); format: cell-based; conditions: 5-5000 μg/plate, −S9 and +S9
Procedure: Bacterial reverse mutation test on compound I-20 was performed on Salmonella typhimurium histidine auxotroph mutants TA97, TA98, TA100 and TA102 (purchased from MolTox company) using conventional procedures of Ames test.
Observation period: colony counting was done 48 hours after cultivation at 37° C.
Drug solutions with different concentrations were prepared with double distilled water, and the doses were 5, 50, 500, 1000, 5000 μg/plate.
Direct effect of the test drug in the absence of metabolic activity was determined by standard plate incorporation assay. The composition of the test top layer was: 2.0 ml top layer, 0.1 ml drug solution, 0.1 ml bacteria solution and 0.5 ml phosphate buffer.
Pre-incubation was used in the determination of the drug's mutagenic effect in the presence of metabolic activity. The composition of the test top layer is: 2.0 ml top layer, 0.1 ml drug solution, 0.1 ml bacteria solution and 0.5 ml S9 mix.
The resulting drug solution, bacterial solution and S9 mix were first incubated at 35° C. for 30 min while shaking, and then tested according to standard plate incorporation assay. Each dose was tested in three plates, each mutant was tested in the absence or presence of metabolic activity (−S9 or +S9) and repeated twice, the number of revertant colonies was calculated as x±SD.

[2] = target: opioid receptor subtype κ (Homo sapiens, UniProt P41145); assay: Competitive binding to opioid receptor subtype κ, [3H]Diprenorphine
Procedure: (§1) The respective test compounds were added to the sample tube (final concentration of 10^−5M), incubated at 37° C. for 30 min and placed in ice bath to terminate the reaction. The reaction mixture was filtered through GF/C (Whatman) glass fiber filter by vacuum filtration on a Millipore sample collector. The filter was washed three times with 50 mM Tris-HCl (pH7.4), each with 4 ml; dried and transferred into a 0.5 ml Eppendorf tube, in which 0.5 ml lipophilic scintillation fluid was added. Radioactivity was detected by a LS6500 scintillation counter. Each concentration had three duplicate test tubes and each separate test was repeated 3 to 4 times.
(§2) Specific binding CMP value for each sample tube=overall binding CPM value for each sample tube−CPM value of non-specific binding tube.
(§3) [Inhibition percentage of competitive binding between the test compound and different opioid receptor subtypes (%)=(100%−specific binding (CPM value)of sample tube/specific binding(CPM value)of solvent group×100%)]
(§4) Average was taken for each test drug from three duplicate tubes; each test was repeated two or more times.

[3] = tested on: Kunming mice; assay: Acetic acid-induced abdominal writhing test in mice; format: in vivo
Procedure: Kunming mice, SPF KM mice purchased from […] SLAC LABORATORY ANIMAL CO. LTD and kept in normal environment.
The compounds were dissolved in water for injection at a concentration of 4 mg/ml, 2 mg/ml and 1 mg/ml and were given intragastrically to animals.
Three different doses (10, 20, and 40 mg/kg) were administered to the test groups.
Aspirin was used as a positive control and acetic acid writhing test was used.
30 mice (half male and half female) weighing 18-23 g were divided into five groups, including negative control group, positive control group, low dose group, medium dose group and high dose group:
Mice in test group received test drug (10 mg/kg, 20 mg/kg, 40 mg/kg) via intragastric administration. Negative control group received physiological saline (20 ml/kg) via oral administration. Positive control group received aspirin (200 mg/kg) via oral administration. One hour later, each group received 0.7% acetic acid 10 ml/kg intraperitoneally. Five minutes later, the number of writhes was counted within the subsequent 15 min period; inhibition percentage of writhing response in each test group was calculated by the following equation: […]

[4] = Acute toxicity, single intragastric administration to mice; conditions: mouse, in vivo, po, Bliss method
Source text: Statistics were made according to Bliss method (“Experimental Design and Statistical Basis for Drug Evaluation”, Changxiao Liu, Ruiyuan Su, first edition, Military Medical Science Press, 1993, 80-90).

[5] = target: opioid receptor subtype μ (Homo sapiens, UniProt P35372); assay: Competitive binding to opioid receptor subtype μ, [3H]Diprenorphine
Procedure: as §1, §2, §3, §4

[6] = tested on: mice; assay: Sedative effects in mice (spontaneous activities); format: in vivo; set-up: unit not given here; conditions: single dose 20 mg/kg
Procedure: Spontaneous activities of the mice were recorded by alternating current tube, Sedative effects were tested after single dose (20 mg/kg).

[7] = target: T1, 5-HT2A receptor (Homo sapiens, UniProt P28223); assay: In-vitro competitive binding to 5-HT2A receptor, [3H]-Ketanserin, transformed HEK293 cells
T1 construct: expressed in transfected cells; host or cells: HEK293
Procedure: All test samples were dissolved in DMSO at a concentration of 0.01 mol/L, and then diluted with deionized water to 100 umol/L.
HEK293 cells were transformed with plasmid carriers containing the gene coding for 5-HT2A receptor protein by using calcium phosphate transformation. Stable cell strains which could stably express 5-HT2A receptor protein were obtained from the transformed cells by cultivating in a culture media containing G418, selecting monoclones of the cell and performing radioactive ligand binding assay.
Beckman LS 6500 Scintillation Counter.
HEK-293 cells were infected with recombined viruses containing various genes described above. […] Cells were centrifuged at 1000 rpm for 5 min Culture media was discarded, and cell bodies were collected and stored at −20° C. in a freezer. The cell bodies were resuspended with Tris-HCl reaction buffer during assay.
After incubation at 37° C. for 15 min, the reaction mixture was immediately transferred into ice bath to terminate the reaction; the reaction mixture was quickly filtered through GF/C glass cellulose filter on a Millipore cell sample collector, and was then washed with eluting solution (50 mM Tris-HCl, PH 7.7, 3 ml×3) and dried in a microwave for 8-9 min. The filter was transferred into a 0.5 ml centrifuge tube, and 500 μl lipid soluble scintillation fluid was added. The centrifuge tube was allowed to stand in darkness for more than 30 min. Radioactivity was determined by counting Inhibition percentage of each compound on isotope ligand binding was calculated according to the following equation:
inhibition percentage(I %)=cpm of overall binding tube−cpm of compound/cpm of overall binding tube−cpm of nonspecific binding tube×100%.
Each compound was tested in two duplicate test tubes and two separate tests were performed.

[8] = affinity to 5-HT2A receptor, concentration gradient test

Compound: N#Cc1ccc2ccn(CCCCN3CCC(c4noc5cc(F)ccc45)CC3)c2c1 [II-9, 1-(4-(4-(6-fluorobenzo[d]isoxazol-3-yl)piperidin-1-yl)butyl)-1H-indole-6-carbonitrile]
- Ames test result [1]: negative
- affinity to opioid receptor subtype κ (in words) [2]: no obvious affinity
- inhibition at 10 µM ([2]; tested concentration 10^−5 mol/L, read-out: κ inhibition percentage of competitive binding): 28.5 ± 1.3%
- Inhibition percentage of writhing response ([3]; 10 mg/kg intragastric administration): 100** %
- Inhibition percentage of writhing response ([3]; 20 mg/kg intragastric administration): 99.05* %
- Inhibition percentage of writhing response ([3]; 40 mg/kg intragastric administration): 100** %
- LD50 [4]: 800 mg/kg
- affinity to opioid receptor subtype μ (in words) [5]: no obvious affinity
- inhibition at 10 µM ([5]; tested concentration 10^−5 mol/L, read-out: μ inhibition percentage of competitive binding): 53.4 ± 0.7%
- Sedative effect [6]: 47*
- IC50 [7, 8]: 2.92 nM
- Ki [7, 8]: 1.97 nM
- inhibitory activity on 5-HT2A (in words) ([7]; compared with Aripiprazole): potent inhibitory activities
- inhibition at 10 µM ([7]; read-out: 5-HT2A [3H]-Ketanserin inhibition percentage): 99.3%
